Assay results as given in US12275731B2, “Azaindole inhibitors of wild-type and mutant forms of LRRK2” (DANA-FARBER CANCER INSTITUTE, INC., priority 2018, dated 2025).

Legend:
Assay in all cases: KinomeScan profiling
Format in all cases: binding
ERK2 = ERK2 (Homo sapiens, UniProt P28482); conditions: ERK2, 1 μM; read-out: % control
In short: (§1)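 The panel spans 468 kinases, and each inventive compound was applied at 1 μM from DMSO. Lower % control means stronger binding; the activity cut-off is set at less than 35%.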

LIMK1 = LIMK1 (Homo sapiens, UniProt P53667); conditions: LIMK1, 1 μM; read-out: % control
In short: as §1

FYN = FYN (Homo sapiens, UniProt P06241); conditions: read-out: % control
In short: as §1

MET = MET (Homo sapiens, UniProt P08581); conditions: read-out: % control
In short: as §1

EGFR(L858R, T790M) = EGFR(L858R, T790M) (Homo sapiens, UniProt P00533, L858R/T790M); conditions: read-out: % control
In short: as §1

[1] = target: T1, ABL1(Q252H)-phosphorylated (Homo sapiens, UniProt P00519, Q252H); conditions: read-out: % control
T1 construct: purchased KinomeScan®
In short: as §1

AAK1 = target: T2, AAK1 (Homo sapiens, UniProt Q2M2I8); conditions: AAK1, 1 μM; read-out: % control
T2 construct: purchased KinomeScan®
In short: as §1

CAMK2D = CAMK2D (Homo sapiens, UniProt Q13557); conditions: read-out: % control
In short: as §1

CDK2 = CDK2 (Homo sapiens, UniProt P24941); conditions: CDK2, 1 μM; read-out: % control
In short: as §1

EPHB3 = target: T3, EPHB3 (Homo sapiens, UniProt P54753); conditions: EPHB3, 1 μM; read-out: % control
T3 sequence (P54753 34-998): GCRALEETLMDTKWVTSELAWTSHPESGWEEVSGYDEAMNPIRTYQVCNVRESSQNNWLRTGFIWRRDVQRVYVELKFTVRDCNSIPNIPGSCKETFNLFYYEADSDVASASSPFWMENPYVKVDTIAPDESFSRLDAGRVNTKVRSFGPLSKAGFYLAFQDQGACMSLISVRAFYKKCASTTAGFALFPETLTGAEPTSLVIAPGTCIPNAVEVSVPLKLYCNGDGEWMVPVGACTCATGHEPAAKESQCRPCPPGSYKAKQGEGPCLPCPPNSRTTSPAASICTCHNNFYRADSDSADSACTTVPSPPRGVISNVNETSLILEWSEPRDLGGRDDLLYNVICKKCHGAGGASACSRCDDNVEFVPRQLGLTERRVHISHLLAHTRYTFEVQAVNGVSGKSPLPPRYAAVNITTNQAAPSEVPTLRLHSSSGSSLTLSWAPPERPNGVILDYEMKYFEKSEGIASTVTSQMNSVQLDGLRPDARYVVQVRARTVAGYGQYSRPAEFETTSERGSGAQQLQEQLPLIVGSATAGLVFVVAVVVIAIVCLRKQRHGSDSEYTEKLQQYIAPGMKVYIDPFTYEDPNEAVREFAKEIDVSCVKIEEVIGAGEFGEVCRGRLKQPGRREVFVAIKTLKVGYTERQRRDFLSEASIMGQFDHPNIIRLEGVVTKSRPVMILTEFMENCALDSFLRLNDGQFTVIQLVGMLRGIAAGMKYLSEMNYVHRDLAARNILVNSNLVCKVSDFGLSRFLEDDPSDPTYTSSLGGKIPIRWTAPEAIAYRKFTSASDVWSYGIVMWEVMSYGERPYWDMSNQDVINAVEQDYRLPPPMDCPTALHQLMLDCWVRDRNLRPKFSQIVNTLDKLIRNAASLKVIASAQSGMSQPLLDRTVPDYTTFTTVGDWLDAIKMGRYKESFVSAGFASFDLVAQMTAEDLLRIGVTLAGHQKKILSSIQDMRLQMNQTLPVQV
In short: as §1

TIE1 = TIE1 (Homo sapiens, UniProt P35590); conditions: TIE1, 1 μM; read-out: % control
In short: as §1

NDR1 = NDR1 (Homo sapiens, UniProt Q15208); conditions: NDR1, 1 μM; read-out: % control
In short: as §1

ALK = target: T4, ALK (Homo sapiens, UniProt Q9UM73); conditions: read-out: % control
T4 construct: purchased KinomeScan®
In short: as §1

ACVRL1 = target: T5, ACVRL1 (Homo sapiens, UniProt P37023); conditions: ACVRL1, 1 μM; read-out: % control
T5 construct: purchased KinomeScan®
In short: as §1

PRKCI = target: T6, PRKCI (Homo sapiens, UniProt P41743); conditions: read-out: % control
T6 sequence (P41743 1-596): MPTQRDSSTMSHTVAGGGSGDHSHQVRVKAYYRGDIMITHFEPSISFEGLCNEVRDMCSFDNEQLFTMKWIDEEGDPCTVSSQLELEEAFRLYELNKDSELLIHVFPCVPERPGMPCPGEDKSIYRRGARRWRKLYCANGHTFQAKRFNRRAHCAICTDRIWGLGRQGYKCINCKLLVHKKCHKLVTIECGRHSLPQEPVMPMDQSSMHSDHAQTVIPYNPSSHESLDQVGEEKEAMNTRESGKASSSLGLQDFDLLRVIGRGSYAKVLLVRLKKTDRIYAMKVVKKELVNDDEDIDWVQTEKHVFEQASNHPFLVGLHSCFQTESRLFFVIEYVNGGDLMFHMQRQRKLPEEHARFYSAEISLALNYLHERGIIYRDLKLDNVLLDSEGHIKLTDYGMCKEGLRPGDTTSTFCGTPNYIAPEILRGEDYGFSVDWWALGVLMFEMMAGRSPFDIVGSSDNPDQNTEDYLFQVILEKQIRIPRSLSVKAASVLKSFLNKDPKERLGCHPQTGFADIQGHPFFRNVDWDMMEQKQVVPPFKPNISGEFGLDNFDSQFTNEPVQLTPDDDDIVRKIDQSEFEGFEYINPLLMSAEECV
In short: as §1

PAK4 = PAK4 (Homo sapiens, UniProt O96013); conditions: PAK4, 1 μM; read-out: % control
In short: as §1

Sequence of NDR1 (Q15208 whole entry): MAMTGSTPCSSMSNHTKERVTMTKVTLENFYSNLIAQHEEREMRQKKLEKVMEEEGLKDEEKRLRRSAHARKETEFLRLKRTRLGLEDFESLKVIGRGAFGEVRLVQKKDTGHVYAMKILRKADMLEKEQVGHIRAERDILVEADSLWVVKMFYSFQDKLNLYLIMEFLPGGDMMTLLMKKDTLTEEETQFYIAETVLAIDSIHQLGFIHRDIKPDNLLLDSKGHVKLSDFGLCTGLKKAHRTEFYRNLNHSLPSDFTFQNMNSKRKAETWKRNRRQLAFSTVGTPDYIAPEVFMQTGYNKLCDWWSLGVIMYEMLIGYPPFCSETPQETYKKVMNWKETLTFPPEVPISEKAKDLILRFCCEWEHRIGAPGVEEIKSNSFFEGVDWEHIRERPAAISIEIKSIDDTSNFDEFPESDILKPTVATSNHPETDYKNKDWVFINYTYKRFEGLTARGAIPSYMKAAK
Sequence of CAMK2D (Q13557 whole entry): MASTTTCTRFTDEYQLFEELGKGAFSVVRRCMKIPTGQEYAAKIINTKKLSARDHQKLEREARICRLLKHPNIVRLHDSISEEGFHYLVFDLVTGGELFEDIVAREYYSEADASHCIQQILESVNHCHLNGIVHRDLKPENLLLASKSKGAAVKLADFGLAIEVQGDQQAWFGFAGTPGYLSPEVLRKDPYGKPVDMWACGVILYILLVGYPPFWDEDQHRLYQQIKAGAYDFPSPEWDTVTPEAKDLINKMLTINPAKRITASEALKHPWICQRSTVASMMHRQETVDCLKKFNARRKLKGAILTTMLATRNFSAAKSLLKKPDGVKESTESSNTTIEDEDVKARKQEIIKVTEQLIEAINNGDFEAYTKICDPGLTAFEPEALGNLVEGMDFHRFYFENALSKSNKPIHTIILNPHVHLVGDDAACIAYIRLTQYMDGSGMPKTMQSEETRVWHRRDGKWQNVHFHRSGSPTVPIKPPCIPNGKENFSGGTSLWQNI
Sequence of ERK2 (P28482 whole entry): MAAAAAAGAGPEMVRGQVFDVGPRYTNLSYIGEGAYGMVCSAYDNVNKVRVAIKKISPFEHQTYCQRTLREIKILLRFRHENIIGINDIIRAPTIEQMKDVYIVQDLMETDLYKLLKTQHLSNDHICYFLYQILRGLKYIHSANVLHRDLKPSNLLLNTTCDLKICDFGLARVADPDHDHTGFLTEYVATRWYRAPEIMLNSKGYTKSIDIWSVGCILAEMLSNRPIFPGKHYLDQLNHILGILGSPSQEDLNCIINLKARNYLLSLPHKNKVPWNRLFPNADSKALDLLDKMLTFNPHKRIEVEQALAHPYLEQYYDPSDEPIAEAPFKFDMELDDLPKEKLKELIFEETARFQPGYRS
Sequence of PAK4 (O96013 whole entry): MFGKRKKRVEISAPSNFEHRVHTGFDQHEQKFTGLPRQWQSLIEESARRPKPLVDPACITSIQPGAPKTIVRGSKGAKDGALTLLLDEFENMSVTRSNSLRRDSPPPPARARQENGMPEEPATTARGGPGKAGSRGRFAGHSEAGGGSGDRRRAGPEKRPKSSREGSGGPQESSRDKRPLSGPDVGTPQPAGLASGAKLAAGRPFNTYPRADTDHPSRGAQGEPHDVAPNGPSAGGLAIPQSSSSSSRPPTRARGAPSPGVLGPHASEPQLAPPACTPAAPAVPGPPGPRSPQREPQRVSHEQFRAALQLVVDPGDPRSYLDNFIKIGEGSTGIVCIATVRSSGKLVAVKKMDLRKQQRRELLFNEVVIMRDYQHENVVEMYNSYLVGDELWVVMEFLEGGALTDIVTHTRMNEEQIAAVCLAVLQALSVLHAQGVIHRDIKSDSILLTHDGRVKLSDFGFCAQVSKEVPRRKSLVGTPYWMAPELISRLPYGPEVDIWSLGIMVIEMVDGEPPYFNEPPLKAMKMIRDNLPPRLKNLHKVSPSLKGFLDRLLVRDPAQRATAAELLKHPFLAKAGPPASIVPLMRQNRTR
Sequence of MET (P08581 25-1390): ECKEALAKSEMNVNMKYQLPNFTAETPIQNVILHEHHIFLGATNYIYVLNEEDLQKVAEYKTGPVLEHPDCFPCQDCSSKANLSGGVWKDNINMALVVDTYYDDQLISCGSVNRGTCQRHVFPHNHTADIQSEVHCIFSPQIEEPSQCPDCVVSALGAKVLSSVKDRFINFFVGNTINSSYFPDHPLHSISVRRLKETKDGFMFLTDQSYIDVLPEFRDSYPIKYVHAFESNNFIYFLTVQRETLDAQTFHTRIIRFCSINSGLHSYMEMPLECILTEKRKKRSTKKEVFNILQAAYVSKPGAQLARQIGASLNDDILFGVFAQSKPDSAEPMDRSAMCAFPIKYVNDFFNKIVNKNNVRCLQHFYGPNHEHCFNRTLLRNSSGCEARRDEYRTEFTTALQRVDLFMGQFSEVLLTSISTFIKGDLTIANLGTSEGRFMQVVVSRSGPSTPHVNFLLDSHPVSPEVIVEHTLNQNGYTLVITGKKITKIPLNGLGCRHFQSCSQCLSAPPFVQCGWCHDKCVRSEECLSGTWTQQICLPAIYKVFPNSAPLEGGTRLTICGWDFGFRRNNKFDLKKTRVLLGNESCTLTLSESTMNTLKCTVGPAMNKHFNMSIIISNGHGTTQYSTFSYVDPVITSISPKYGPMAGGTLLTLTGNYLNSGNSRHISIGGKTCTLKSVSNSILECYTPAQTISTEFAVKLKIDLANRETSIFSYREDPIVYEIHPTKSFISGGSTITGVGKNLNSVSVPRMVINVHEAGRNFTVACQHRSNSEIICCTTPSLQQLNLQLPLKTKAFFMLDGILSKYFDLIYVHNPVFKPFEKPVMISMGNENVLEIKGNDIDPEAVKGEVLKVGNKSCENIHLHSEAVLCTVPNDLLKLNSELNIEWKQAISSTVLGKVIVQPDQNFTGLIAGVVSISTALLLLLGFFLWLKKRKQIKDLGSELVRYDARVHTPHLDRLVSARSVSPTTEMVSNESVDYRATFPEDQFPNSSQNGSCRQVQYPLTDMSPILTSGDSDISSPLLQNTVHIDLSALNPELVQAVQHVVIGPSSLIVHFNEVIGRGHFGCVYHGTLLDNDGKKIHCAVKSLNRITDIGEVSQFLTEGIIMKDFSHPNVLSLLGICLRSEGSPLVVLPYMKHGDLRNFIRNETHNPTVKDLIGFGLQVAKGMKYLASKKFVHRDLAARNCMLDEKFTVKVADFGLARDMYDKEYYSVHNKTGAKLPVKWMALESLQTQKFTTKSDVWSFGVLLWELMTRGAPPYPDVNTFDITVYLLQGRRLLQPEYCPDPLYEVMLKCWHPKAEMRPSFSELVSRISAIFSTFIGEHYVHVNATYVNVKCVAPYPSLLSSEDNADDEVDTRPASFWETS
Sequence of FYN (P06241 whole entry): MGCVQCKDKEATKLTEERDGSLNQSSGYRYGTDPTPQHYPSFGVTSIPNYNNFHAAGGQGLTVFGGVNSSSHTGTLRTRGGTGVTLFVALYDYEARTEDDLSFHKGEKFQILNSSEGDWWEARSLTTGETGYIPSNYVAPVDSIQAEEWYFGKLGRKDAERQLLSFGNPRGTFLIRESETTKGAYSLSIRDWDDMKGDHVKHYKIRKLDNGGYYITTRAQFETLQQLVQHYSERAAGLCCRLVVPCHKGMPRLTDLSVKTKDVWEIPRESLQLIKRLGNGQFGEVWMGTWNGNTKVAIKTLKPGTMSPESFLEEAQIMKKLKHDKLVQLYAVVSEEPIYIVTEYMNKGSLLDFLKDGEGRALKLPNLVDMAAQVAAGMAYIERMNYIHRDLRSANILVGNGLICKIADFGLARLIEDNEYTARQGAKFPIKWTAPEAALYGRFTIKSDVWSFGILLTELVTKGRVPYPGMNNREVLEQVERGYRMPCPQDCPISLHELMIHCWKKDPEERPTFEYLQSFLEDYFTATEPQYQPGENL
T5 sequence (P37023 22-503): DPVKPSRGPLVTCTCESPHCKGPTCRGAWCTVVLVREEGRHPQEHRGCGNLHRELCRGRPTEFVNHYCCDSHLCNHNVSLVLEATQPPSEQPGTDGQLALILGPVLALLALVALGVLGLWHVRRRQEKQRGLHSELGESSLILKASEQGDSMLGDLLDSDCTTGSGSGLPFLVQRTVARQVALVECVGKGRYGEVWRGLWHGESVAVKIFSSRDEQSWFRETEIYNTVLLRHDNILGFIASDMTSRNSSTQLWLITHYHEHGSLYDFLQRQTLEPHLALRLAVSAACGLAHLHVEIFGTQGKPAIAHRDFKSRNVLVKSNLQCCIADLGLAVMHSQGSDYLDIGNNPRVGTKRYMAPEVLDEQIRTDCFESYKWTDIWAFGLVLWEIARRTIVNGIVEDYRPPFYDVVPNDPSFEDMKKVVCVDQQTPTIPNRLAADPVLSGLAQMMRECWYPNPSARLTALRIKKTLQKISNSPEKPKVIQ
Sequence of LIMK1 (P53667 whole entry): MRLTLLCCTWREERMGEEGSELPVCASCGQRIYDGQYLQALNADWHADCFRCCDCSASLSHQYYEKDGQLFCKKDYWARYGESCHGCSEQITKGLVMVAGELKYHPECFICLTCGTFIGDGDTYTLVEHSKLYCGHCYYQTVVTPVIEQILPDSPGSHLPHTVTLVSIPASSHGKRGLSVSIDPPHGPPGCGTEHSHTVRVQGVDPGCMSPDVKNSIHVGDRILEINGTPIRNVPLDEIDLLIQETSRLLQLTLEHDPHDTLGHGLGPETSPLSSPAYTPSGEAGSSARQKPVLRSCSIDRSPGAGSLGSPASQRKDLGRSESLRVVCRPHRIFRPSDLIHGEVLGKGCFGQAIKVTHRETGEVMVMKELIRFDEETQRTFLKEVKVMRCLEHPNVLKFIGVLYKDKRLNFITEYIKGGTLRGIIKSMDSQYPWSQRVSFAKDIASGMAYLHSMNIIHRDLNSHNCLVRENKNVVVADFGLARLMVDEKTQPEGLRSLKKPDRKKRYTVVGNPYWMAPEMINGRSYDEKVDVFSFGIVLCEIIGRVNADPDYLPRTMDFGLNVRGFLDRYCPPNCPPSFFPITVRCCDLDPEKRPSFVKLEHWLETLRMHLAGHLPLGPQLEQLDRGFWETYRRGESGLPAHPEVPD

Compound | remaining binding at 1 µM (ERK2) [%] | remaining binding at 1 µM (LIMK1) [%] | remaining binding at 1 µM (FYN) [%] | remaining binding at 1 µM (MET) [%] | remaining binding at 1 µM (EGFR(L858R, T790M)) [%] | remaining binding at 1 µM [1] [%] | remaining binding at 1 µM (AAK1) [%] | remaining binding at 1 µM (CAMK2D) [%] | remaining binding at 1 µM (CDK2) [%] | remaining binding at 1 µM (EPHB3) [%] | remaining binding at 1 µM (TIE1) [%] | remaining binding at 1 µM (NDR1) [%] | remaining binding at 1 µM (ALK) [%] | remaining binding at 1 µM (ACVRL1) [%] | remaining binding at 1 µM (PRKCI) [%] | remaining binding at 1 µM (PAK4) [%]
CNc1c(-c2cnn([C@H]3CCN(C(C)=O)C[C@@H]3F)c2)cnc2[nH]cc(Cl)c12 [Compound 77, 1-((3S,4S)-4-(4-(3-chloro-4-(methylamino)-1H-pyrrolo[2,3-b]pyridin-5-yl)-1H-pyrazol-1-yl)-3-fluoropiperidin-1-yl)ethan-1-one] | 91 | 100 | 94 | 63 | 99 | 95 | 36 | 100 | 100 | 100 | 97 | 74 | 40 | 100 | 67 | 65
O=C(c1ccc(-c2cnc3[nH]cc(Cl)c3c2NC2CCCC2)cc1)N1CCC(N2CCOCC2)CC1 [Compound 101, (4-(3-chloro-4-(cyclopentylamino)-1H-pyrrolo[2,3-b]pyridin-5-yl)phenyl)(4-morpholinopiperidin-1-yl)methanone] | 93 | 76 | 87 | 16 | 100 | 100 | 67 | 93 | 100 | 79 | 92 | 84 | 75 | 100 | 100 | 100
CNc1c(-c2ccc(C(=O)N3CCC(N4CCOCC4)CC3)cc2)cnc2[nH]cc(Cl)c12 [Compound 96, (4-(3-chloro-4-(methylamino)-1H-pyrrolo[2,3-b]pyridin-5-yl)phenyl)(4-morpholinopiperidin-1-yl)methanone] | 95 | 100 | 96 | 84 | 98 | 100 | 23 | 100 | 100 | 100 | 93 | 69 | 46 | 100 | 69 | 31
